A value given as a limit tells only on which side of the number the result lay.

One experiment addresses T1, ShaI/KChIP (Drosophila melanogaster, UniProt P17971).
T1 construct: expressed in transfected cells; subclone 18-13-20
T1 sequence (P17971 with tags, fused parts or gaps isoform P17971-1): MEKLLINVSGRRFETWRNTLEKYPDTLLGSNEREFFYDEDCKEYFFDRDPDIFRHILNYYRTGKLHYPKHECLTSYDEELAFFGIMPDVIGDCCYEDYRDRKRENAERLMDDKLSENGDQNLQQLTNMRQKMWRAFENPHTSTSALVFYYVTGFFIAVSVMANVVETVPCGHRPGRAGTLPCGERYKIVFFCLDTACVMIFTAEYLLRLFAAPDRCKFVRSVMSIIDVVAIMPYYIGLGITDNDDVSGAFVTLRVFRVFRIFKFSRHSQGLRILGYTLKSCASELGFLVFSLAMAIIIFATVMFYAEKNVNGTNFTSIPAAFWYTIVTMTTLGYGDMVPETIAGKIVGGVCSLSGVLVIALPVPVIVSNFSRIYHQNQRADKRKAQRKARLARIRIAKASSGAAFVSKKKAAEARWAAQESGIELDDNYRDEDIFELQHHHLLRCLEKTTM
The experiment in a line: ShaI/KChIP FLIPR membrane potential assay, KCl depolarization.
Conditions: not given
Format: cell-based. Here is the method:
This assay uses two fluid additions to permit the detection of activators and antagonists in a single experiment (FIG. 17). In screening, test compounds are added in the first addition and allowed to incubate for three minutes. An activating dose of KCl is then introduced in the second addition and the fluorescence read for an additional three minutes. Controls are run for both additions.
Cells were dispensed in a 50 μl volume containing 7,500 cells into 384-well TC clear/black assay plates (Greiner 781091) using a Multidrop 384 dispenser, incubated at ambient temperature for one hour (to reduce edge effects), and incubated overnight at 37° C./5% CO2. The cells were assayed 18-24 hours after seeding, at which point they were just approaching confluency in the wells. Culture medium was removed by flicking and tapping it out of the plate, and cells were loaded with 20 ul/well of 1× blue membrane potential dye in assay buffer for 30 minutes at 25° C. After 30 minutes the assay plate was placed into the FLIPR and run using a two-addition protocol. The first addition (5×, 5 ul) contained 2.5% DMSO in assay buffer. The pipetting height was set at 15 and the speed 20. The plate was read for three minutes after this addition. The second addition (2×, 25 ul) was either assay buffer or 120 mM isometrically-substituted KCl (i.e., KCl substituted for NaCl on a 1:1 molar basis). The height was 20 and the speed 25. Aspirate speeds were set at the lowest values and no hold or expel volumes applied. The plate was read for an additional three minutes after the second addition. The exported statistics were typically configured as stat1=average of 190-200 (the interval just before the first addition) and stat2=maximum of 260-maximum allowed. Subtract bias was set at 1 and negative control correction was OFF. Z′ statistics (an index of “screenability”, Z′>0.5=single-pass screen) were calculated using the following formula: Z′=1−((3σmax+3σmin)/(Iμmax−μminI)).
FIG. 32: BIOMOL compounds—primary screening data. ScreenWorks screenshots showing primary FLIPR data for BIOMOL compound screening. ShaI/KChIP 20 cells were plated at 7500 cells/well in 384-well assay plates and screened the following day. Culture medium was removed by flicking the plates and the cells were loaded with 20 ul 1× membrane potential dye per well for 0.5 hours at 25° C. A two-addition protocol was used. The first addition was 5 ul 5× control or compound in 2.5% DMSO in assay buffer (0.5% [final]) read for 180 sec, and the second addition was 25 ul 2× control or 120 mM isometrically-substituted KCl in assay buffer (0-60 mM [final]) read for an additional 180 sec. Statistics were exported using the average of reads 180-200 and the maximum of reads 260-maximum allowed. Subtract bias was set at 1 and negative control correction was OFF. Control columns ½ and 23/24 are described starting on pg. 53 of this document. Inset: Screenshot of group averages for the control and compound wells highlighted in the primary data screen.
The 3222 unique members of the BioFocus SoftFocus Ion Channel Libraries #1-4 (#SF101-04) were screened in 384-well four-point mode against ShaI/KChIP at 10 uM in a combined activator and antagonist screen. The same FLIPR protocol was used as for the BIOMOL screening and was carried out over four non-consecutive days. The following compound preparation protocol was used to prepare screening plates: Briefly, ShaI-KChIP cells were seeded in 384-well plates at 7500 cells/well in 50 ul and incubated overnight at 37° C./5% CO2. The next day, culture medium was removed, 20 ul of 1×FMP dye was added, and the cell plate was incubated at 27° C. for 30 minutes. After incubation, the cell plate was placed into the Tetra and a two-addition protocol was used. The 1st addition was 5 μl of 5× compound (50 μM) with a three minute read. […] The 2nd addition was 25 ul of 2× activation buffer (120 mM isometric KCl substitution for NaCl) and read for an additional two minutes. […]
Consider `Cc1cccnc1C1=NOC(Cc2ccccc2)C(=O)N1CCc1ccccc1` (stereo not shown), for which the inhibition at 10 µM is 33.3%. Regarding `Cc1cc(CC2(c3cccc(F)c3)C(=O)Nc3cc(F)ccc32)no1` (stereo not shown), the inhibition at 10 µM turned out to be 54.9%. Molecule `CC1ON=C(c2cccc(Cl)c2)N(Cc2ccc3c(c2)OCO3)C1=O` (stereo not shown) displayed an inhibition at 10 µM of 31.5%.

In turn, `O=C1Nc2cc(Cl)cc(Cl)c2C1(Cc1ccncc1)c1ccccc1` (stereo not shown) showed an inhibition at 10 µM of 36.4%. For the molecule `O=C(NCc1cccc(C(F)(F)F)c1)c1cn(CCc2c[nH]c3ccccc23)c(=O)s1`, the inhibition at 10 µM was found to be 35%. The molecule `CC1(Cc2cc(Cl)ccc2C(F)(F)F)C(=O)Nc2ccccc21` (stereo not shown) had an inhibition at 10 µM of 32.5%. Still for that read-out and setting: the figure for `Cc1noc(C)c1CC1(c2ccccc2)C(=O)Nc2c(Cl)cccc21` (stereo not shown) is 33%; for `Cc1ccc(C2(Cc3ccncc3)C(=O)Nc3cc(F)ccc32)cc1` (stereo not shown) it is 48.5%; for `Cc1nc(CC2(c3ccccc3)C(=O)Nc3cc(F)ccc32)cs1` (stereo not shown) it is 42.5%. The molecule `Cc1c(C(=O)NCc2ccc(C(F)(F)F)cc2)sc(=O)n1CCc1c[nH]c2ccccc12` yielded an inhibition at 10 µM of 33.3%.

In turn, `Cc1ccc(C2(Cc3ccncc3)C(=O)Nc3ccc(OC(F)(F)F)cc32)cc1` (stereo not shown) displayed an inhibition at 10 µM of 29.1%. On the same count and under the same terms, the figure for `COc1ccc2c(c1)C(C)(Cc1ccc(Cl)s1)C(=O)N2` (stereo not shown) is 38.3%; for `Cc1ccc(C2(Cc3cccc(C(N)=O)c3)C(=O)Nc3cc(F)ccc32)cc1` (stereo not shown) it is 57.5%. Same read-out and setting: the figure for `N#Cc1cccc(CC2(c3ccccc3)C(=O)Nc3ccc(OC(F)(F)F)cc32)c1` (stereo not shown) is 32.1%; for `CCC1(c2sccc2C)C(=O)Nc2ccccc21` (stereo not shown) it is 52%; for `CC1(Cc2ccccc2C#N)C(=O)Nc2ccccc21` (stereo not shown) it is 39.7%. On the same count and under the same terms, the figure for `Cc1ccc(C2(Cc3cc(C)on3)C(=O)Nc3ccc(OC(F)(F)F)cc32)cc1` (stereo not shown) is 40.1%. In turn, `Cc1noc(C)c1CC1(c2ccccc2)C(=O)Nc2ccc(OC(F)(F)F)cc21` (stereo not shown) showed an inhibition at 10 µM of 50.4%. Still for that read-out and setting: with `CC1ON=C(c2ccc(N(C)C)cc2)N(Cc2cccc(F)c2)C1=O` (stereo not shown) the figure was 41.3%; with `COc1ccc(C2(Cc3ccc(C(F)(F)F)o3)C(=O)Nc3ccc(F)cc32)c(OC)c1` (stereo not shown), 60.3%. Still for that read-out and setting: the figure for `CC1(c2ccccc2)C(=O)Nc2ccccc21` (stereo not shown) is 42.6%; for `CC1=NOC(Cc2ccccc2)C(=O)N1CC(=O)c1ccccc1F` (stereo not shown) it is 41.6%. Regarding `Cc1nc(CC2(c3ccccc3)C(=O)Nc3ccc(OC(F)(F)F)cc32)cs1` (stereo not shown), the inhibition at 10 µM was found to be 31.4%. In turn, `CC1(Cc2ccc(F)c(Cl)c2)C(=O)Nc2ccc(F)cc21` (stereo not shown) showed an inhibition at 10 µM of 52.6%. Still for that read-out and setting: the figure for `Cc1c(C(=O)NCc2ccc(F)cc2)sc(=O)n1Cc1ccc(Cl)c(Cl)c1` is 38%. `CC1(Cc2ccccc2C#N)C(=O)Nc2cc(OC(F)(F)F)ccc21` (stereo not shown): the inhibition at 10 µM was 31.2%. Same read-out and setting: the figure for `O=C(NCc1cccc(C(F)(F)F)c1)c1cn(CCOc2ccc(F)cc2)c(=O)s1` is 30.2%. `Cc1nc(CC2(c3cccc(F)c3)C(=O)Nc3cc(F)ccc32)cs1` (stereo not shown) returned an inhibition at 10 µM of 37.5%.

As for `COc1ccc(Cl)cc1C1=NOCC(=O)N1CCOc1ccc(F)cc1`, the inhibition at 10 µM came to 38.7%.

Molecule `COC(=O)c1ccc(CC2(c3cccc(F)c3)C(=O)Nc3cccc(Cl)c32)o1` (stereo not shown) yielded an inhibition at 10 µM of 41.5%.

In turn, `Cc1ccc(C2(Cc3c(C)noc3C)C(=O)Nc3cc(F)ccc32)cc1` (stereo not shown) gave an inhibition at 10 µM of 35.2%. Still for that read-out and setting: with `Cc1ccccc1C1(Cc2cccc(C#N)c2)C(=O)Nc2ccc(F)cc21` (stereo not shown) the figure was 55.5%; with `CC1(Cc2cccc(F)c2)C(=O)Nc2ccc(OC(F)(F)F)cc21` (stereo not shown), 33.5%; with `Cc1nc(CC2(c3cccc(F)c3)C(=O)Nc3ccc(OC(F)(F)F)cc32)cs1` (stereo not shown), 34%.

The molecule `O=C1Nc2cc(F)ccc2C1(Cc1ccc(C(F)(F)F)nc1)c1cccc(F)c1` (stereo not shown) showed an inhibition at 10 µM of 42.7%. Still for that read-out and setting: with `Cc1cccnc1C1=NOC(Cc2ccccc2)C(=O)N1CCOc1ccc(F)cc1` (stereo not shown) the figure was 36.2%; with `CC1ON=C(c2ccccc2F)N(Cc2cccc(F)c2)C1=O` (stereo not shown), 30.2%. Molecule `COc1ccc(Cl)cc1CC1(C)C(=O)Nc2ccc(F)cc21` (stereo not shown) yielded an inhibition at 10 µM of 32%. Take `NC(N)=NC(=O)c1nc(Cl)c(N)nc1N` [Amiloride, 3,5-diamino-6-chloro-N-(diaminomethylene)pyrazine-2-carboxamide, reference compound]: the inhibition at 25 µM is 80 to 100%. The molecule `CC1ON=C(c2cccc(Cl)c2)N(Cc2cccc(C#N)c2)C1=O` (stereo not shown) came in with an inhibition at 10 µM of 38.7%. With `CCOc1ccc(C2=NOC(C)C(=O)N2Cc2cccc(F)c2)cc1` (stereo not shown), the inhibition at 10 µM was determined as 52.7%.

Molecule `NC(=O)c1cccc(CC2(c3cccc(F)c3)C(=O)Nc3cc(F)ccc32)c1` (stereo not shown) came in with an inhibition at 10 µM of 54.1%. As for `O=C1Nc2ccc(OC(F)(F)F)cc2C1(Cc1ccccn1)c1ccccc1` (stereo not shown), the inhibition at 10 µM was 39.1%.

For `COc1ccc(C(C)=O)cc1CC1(c2ccc3c(c2)OCO3)C(=O)Nc2ccccc21` (stereo not shown), the inhibition at 10 µM was 35.2%. `Cc1ccc(C2(Cc3csc(C)n3)C(=O)Nc3cc(F)ccc32)cc1` (stereo not shown): the inhibition at 10 µM amounted to 29.3%. On to `NC(=O)c1cccc(CC2(c3ccccc3)C(=O)Nc3c(Cl)cccc32)c1` (stereo not shown), for which the inhibition at 10 µM amounted to 33.3%. Turning to `Cc1ccsc1C1(Cc2cccc(C#N)c2)C(=O)Nc2cc(F)ccc21` (stereo not shown), the inhibition at 10 µM turned out to be 58%. The same measure, in the same setting: with `CC1ON=C(Cc2ccccc2)N(CCc2c[nH]c3ccccc23)C1=O` (stereo not shown) the figure was 29.6%; with `Cc1nc(CC2(c3sccc3C)C(=O)Nc3ccc(OC(F)(F)F)cc32)cs1` (stereo not shown), 37.8%. Still for that read-out and setting: with `CC1(Cc2ccccc2C#N)C(=O)Nc2cc(-c3ccccc3Cl)ccc21` (stereo not shown) the figure was 63.3%; with `Cc1ccc(C2(Cc3csc(C)n3)C(=O)Nc3cccc(Cl)c32)cc1` (stereo not shown), 46%.

`Cc1c(C(=O)NCc2ccc([N+](=O)[O-])cc2)sc(=O)n1Cc1ccc(OC(F)(F)F)cc1` showed an inhibition at 10 µM of 30.2%. Molecule `Cc1ccsc1C1(C)C(=O)Nc2ccccc21` (stereo not shown) displayed an inhibition at 10 µM of 56.8%.

In turn, `O=C1Nc2ccc(F)cc2C1(Cc1ccccn1)c1ccc(Cl)cc1` (stereo not shown) displayed an inhibition at 10 µM of 56.8%.

The experiment is the same for the next values; noted with them: ShaI/KChIP 20 cells, three consecutive days, duplicate plates; read-out: IC50 range.
`NC(N)=NC(=O)c1nc(Cl)c(N)nc1N` [Amiloride, 3,5-diamino-6-chloro-N-(diaminomethylene)pyrazine-2-carboxamide, reference compound]: the IC50 was 20 to 29 µM.

The same experiment, now with this note: ShaI/KChIP 20 cells, three consecutive days; standard deviation 3 uM; read-out: IC50 mean.
Turning to `NC(N)=NC(=O)c1nc(Cl)c(N)nc1N` [Amiloride, 3,5-diamino-6-chloro-N-(diaminomethylene)pyrazine-2-carboxamide, reference compound], the IC50 was found to be 24 µM.

The experiment is the same for the next values; noted with them: read-out: inhibition of ShaI/KChIP response, arbitrary cutoff.
With `O=C(O)c1ccccc1Nc1cccc(C(F)(F)F)c1` [flufenamic acid, reference compound], the inhibition at 25 µM is no less than 55%. Turning to `NC(N)=NC(=O)c1nc(Cl)c(N)nc1N` [Amiloride, 3,5-diamino-6-chloro-N-(diaminomethylene)pyrazine-2-carboxamide, reference compound], the inhibition at 25 µM was no less than 55%.

The record behind these values is patent US9029080B2, “Screening assay for insecticides” (priority 2008, dated 2015).
